# What was measured:
# [1] = biological target: T1, Neuronal acetylcholine receptor; alpha3/beta4 (Homo sapiens, UniProt P30926+P32297); assay: Effect on alpha3-beta4 neuronal nicotinic acetylcholine receptor-stimulated adrenal catecholamine secretion; type: functional
# [2] = biological target: T1, Neuronal acetylcholine receptor; alpha3/beta4; assay: Inhibitory activity against nicotinic acetylcholine receptor alpha3-beta4; type: protein-complex assay
# [3] = biological target: Neuronal acetylcholine receptor subunit alpha-7 (Homo sapiens, UniProt P36544); assay: Affinity for nicotinic acetylcholine receptor alpha7
# Chain of Neuronal acetylcholine receptor subunit alpha-7 (P36544 whole entry): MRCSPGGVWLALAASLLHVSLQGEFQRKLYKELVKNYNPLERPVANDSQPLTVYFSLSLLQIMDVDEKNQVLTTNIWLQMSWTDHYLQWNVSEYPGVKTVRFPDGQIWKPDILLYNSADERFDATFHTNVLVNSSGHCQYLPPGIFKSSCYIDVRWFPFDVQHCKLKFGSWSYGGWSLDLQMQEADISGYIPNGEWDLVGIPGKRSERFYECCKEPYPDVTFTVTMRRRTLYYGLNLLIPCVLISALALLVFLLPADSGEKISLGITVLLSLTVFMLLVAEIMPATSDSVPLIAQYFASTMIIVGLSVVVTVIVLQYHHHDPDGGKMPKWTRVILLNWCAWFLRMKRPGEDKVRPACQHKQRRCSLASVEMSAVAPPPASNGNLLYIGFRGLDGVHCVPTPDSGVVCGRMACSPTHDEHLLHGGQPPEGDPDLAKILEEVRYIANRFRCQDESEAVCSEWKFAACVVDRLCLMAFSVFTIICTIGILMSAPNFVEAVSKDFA
# [4] = biological target: Neuronal acetylcholine receptor subunit alpha-3 (Homo sapiens, UniProt P32297); assay: Inhibitory activity on nicotinic acetylcholine receptor alpha3
# Chain of Neuronal acetylcholine receptor subunit alpha-3 (P32297 whole entry): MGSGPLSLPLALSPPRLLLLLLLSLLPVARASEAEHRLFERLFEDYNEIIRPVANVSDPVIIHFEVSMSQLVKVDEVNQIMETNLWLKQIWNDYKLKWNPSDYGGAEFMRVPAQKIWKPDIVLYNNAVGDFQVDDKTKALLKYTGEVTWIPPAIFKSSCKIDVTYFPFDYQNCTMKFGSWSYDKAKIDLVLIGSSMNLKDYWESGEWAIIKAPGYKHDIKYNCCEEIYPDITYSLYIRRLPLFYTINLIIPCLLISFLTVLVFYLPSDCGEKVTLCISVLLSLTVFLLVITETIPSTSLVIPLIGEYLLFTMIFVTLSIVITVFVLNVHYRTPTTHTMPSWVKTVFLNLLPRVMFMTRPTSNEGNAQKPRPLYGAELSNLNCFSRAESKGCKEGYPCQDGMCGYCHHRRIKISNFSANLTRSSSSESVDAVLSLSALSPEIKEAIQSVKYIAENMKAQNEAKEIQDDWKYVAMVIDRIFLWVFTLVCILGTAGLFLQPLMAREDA
# T1 sequence (P30926 whole entry): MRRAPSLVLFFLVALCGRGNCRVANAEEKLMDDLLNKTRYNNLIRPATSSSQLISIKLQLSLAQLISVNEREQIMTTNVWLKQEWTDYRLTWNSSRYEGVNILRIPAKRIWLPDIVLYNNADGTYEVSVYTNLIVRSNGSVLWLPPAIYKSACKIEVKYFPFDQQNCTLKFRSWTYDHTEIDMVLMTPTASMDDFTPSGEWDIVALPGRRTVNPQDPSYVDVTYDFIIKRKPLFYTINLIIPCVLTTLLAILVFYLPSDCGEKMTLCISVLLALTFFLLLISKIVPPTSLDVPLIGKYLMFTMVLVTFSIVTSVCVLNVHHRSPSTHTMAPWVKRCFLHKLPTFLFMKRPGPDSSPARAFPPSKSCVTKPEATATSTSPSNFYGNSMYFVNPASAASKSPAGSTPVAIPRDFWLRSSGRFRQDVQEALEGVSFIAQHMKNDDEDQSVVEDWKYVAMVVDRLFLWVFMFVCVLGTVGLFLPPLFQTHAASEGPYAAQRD
# T1 sequence (P32297 whole entry): as the sequence (P32297 whole entry) above
Compound,IC50 [1],also measured
O=C(OCC1CCCN(CCCc2ccccc2)C1)c1ccccc1F (centres undefined),5200 nM,
CCC1CC(=O)N(c2ccccc2C(=O)OCC2CCCN(CCCc3ccccc3)C2)C1=O (centres undefined),4500 nM,
O=C(OCC1CCCN(CCCc2ccccc2)C1)c1ccc(-c2ccccc2)cc1 (centres undefined),3000 nM,
CCCCC1CC(=O)N(c2ccccc2C(=O)OCC2CCCN(CCCc3ccccc3)C2)C1=O (centres undefined),1500 nM,
CC1(C)CC(=O)N(c2ccccc2C(=O)OCC2CCCN(CCCc3ccccc3)C2)C1=O (centres undefined),7500 nM,
CC1C(=O)N(c2ccccc2C(=O)OCC2CCCN(CCCc3ccccc3)C2)C(=O)C1C (centres undefined),6000 nM,
O=C(OCC1CCCN(CCCc2ccccc2)C1)c1ccccc1N1C(=O)c2ccccc2C1=O (centres undefined),1300 nM,
O=C(OCC1CCCN(CCCc2ccccc2)C1)c1ccccc1-c1ccccc1 (centres undefined),1700 nM,
O=C(OCC1CCCN(CCCc2ccccc2)C1)c1ccccc1C(F)(F)F (centres undefined),3200 nM,
CCCCCCCCC1CC(=O)N(c2ccccc2C(=O)OCC2CCCN(CCCc3ccccc3)C2)C1=O (centres undefined),1300 nM,
COc1cc2c3cc1Oc1cc(ccc1O)C[C@@H]1c4c(cc(OC)c(O)c4Oc4ccc(cc4)C[C@@H]3N(C)CC2)CC[N+]1(C)C,,IC50 [2]: 2000 nM
CC1CC(=O)N(c2ccccc2C(=O)OCC2CCCN(CCc3ccccc3)C2)C1=O (centres undefined),11400 nM,IC50 [3]: 177000 nM
O=C(OCC1CCCN(CCCc2ccccc2)C1)c1ccccc1N1C(=O)CC(C2CCCC2)C1=O (centres undefined),1200 nM,
C=CCC1CC(=O)N(c2ccccc2C(=O)OCC2CCCN(CCCc3ccccc3)C2)C1=O (centres undefined),1700 nM,
CC(C)C1CC(=O)N(c2ccccc2C(=O)OCC2CCCN(CCCc3ccccc3)C2)C1=O (centres undefined),2500 nM,
O=C(OCC1CCCN(CCCc2ccccc2)C1)c1ccccc1N1C(=O)CC(Cc2ccccc2)C1=O (centres undefined),1300 nM,
CC(=O)Nc1ccccc1C(=O)OCC1CCCN(CCCc2ccccc2)C1 (centres undefined),8400 nM,
COc1ccccc1C(=O)OCC1CCCN(CCCc2ccccc2)C1 (centres undefined),3200 nM,
CC1CC(=O)N(c2ccccc2C(=O)OCC2CCCN(C(C)C)C2)C1=O (centres undefined),,IC50 [4]: ~20000 nM
CC(C)N1CCCC(COC(=O)c2ccccc2N2C(=O)CCC2=O)C1 (centres undefined),,IC50 [4]: ~20000 nM
C[N+](C)(C)CCCCCCCCCC[N+](C)(C)C [DECAMETHONIUM],,IC50 [2]: ~1700 nM
C[N+](C)(C)CCCCCC[N+](C)(C)C [HEXAMETHONIUM HYDROXIDE],,IC50 [2]: ~1700 nM
CCN1C[C@]2(COC(=O)c3ccccc3N3C(=O)C[C@H](C)C3=O)CC[C@H](OC)[C@@]34[C@@H]5C[C@H]6[C@H](OC)[C@@H]5[C@](O)(C[C@@H]6OC)[C@](O)([C@@H](OC)[C@H]23)[C@@H]14 [METHYLLYCACONITINE],2600 nM,

# From ChEMBL document CHEMBL1146803, “Structure activity studies of ring E analogues of methyllycaconitine. Part 2: Synthesis of antagonists to the alpha3beta4* nicotinic acetylcholine receptors through modifications to the ester” (Bioorg Med Chem Lett, 2004)
